A short description of series [1]: Ussing chamber permeation across ex vivo porcine jejunum. In kind it is in vitro ADME, pig. The settings on record: female, Swiss noble, pig. From the text: (§1) Fresh jejunum from female, 6 month-old Swiss noble pigs was harvested immediately after slaughter (Abattoir de […], Switzerland and Abattoir de Loëx; Bernex, Switzerland). […] Briefly, the intestine was opened along the mesenteric border and carefully rinsed with ice-cold KBR. […] A six Ussing chamber system was used for the intestinal transport experiments (Physiologic Instruments; San Diego, CA, USA). The Ussing chambers were set up on a heating block connected to a VCC MC6 MultiChannel voltage-current clamp via six input modules, containing integral dummy membranes. A temperature of 38 °C (porcine body temperature) was maintained using a circulating water bath (ED-5, Julabo GmbH, Seelbach, Germany). The Ussing chamber system was set up following the protocol of […] et al. […] In a first step, the acceptor and donor compartments of the Ussing chamber were filled with preheated KBR, and any voltage difference between the electrodes and the electrical resistance due to the buffer solution was eliminated. […] The choice of all substrates and inhibitors was based on the University of California, San Francisco-Food and Drug Administration (UCSF-FDA) TransPortal. The substrates tested, their physicochemical properties and the inhibitors used are described in Table 1. […] The integrity of the intestinal tissue was monitored throughout the experiment by measurement of the transepithelial resistance (TEER). […] At the end of the experiment, samples were taken from the acceptor and the donor compartment. The intestinal tissue was cut into little pieces and extracted for 6 h at room temperature in the mobile phase used for the UHPLC-MS/MS analysis (see Supplementary Information). […] Mass spectrometry was performed in multiple reaction monitoring (MRM) mode. All details of the analytical methods used for each of the molecules tested can be found in the Supplementary Information.

The next series concerns ex vivo porcine jejunum. Described as above. Type of series: in vitro ADME, pig. The settings on record: for QPERM (+INH) / QDEP (+INH): presence of the corresponding transporter inhibitor (as E19); for change of Papp,pig in the presence of the corresponding inhibitor / change of QDEP in the presence of the corresponding inhibitor: statistical comparison, α = 0.05, inhibitors as E19; for Papp,pig fold lower than Papp,human: vs reported ex vivo human intestine.
Text: as §1

The next series in a line: Solubility in KBR buffer. In kind it is physicochemical. The settings on record: aqueous buffer, Krebs-bicarbonate ringer buffer pH 7.4.
On the set-up of series [2]: method as in earlier work. The settings on record: cited from earlier work.
The test system of a further series is rat intestine. The following applies: absence of inhibitor; cited from earlier work.
A further series has as its system P-gp. The settings on record: substrate of P-gp, cited from earlier work.
Another series has as its system human intestine. The arrangement: method as in PMID 23103351, PMID 21416475. The settings on record: absence of inhibitor; cited from earlier work.
The subject of the next series is BCRP. The settings on record: cited from earlier work.
The next series deals with MRP2. The settings on record: cited from earlier work.
For another series, the system named is PEPT1. Also on record: method as in PMID 18824524. The settings on record: inhibitor of PEPT1; cited from earlier work.
In series [3] the test system is porcine intestine (ileum, jejunum). The arrangement: method as in PMID 30901927. The settings on record: porcine ileum and jejunum; cited from earlier work.
Another series deals with OCT1. The following applies: substrate of OCT1; cited from earlier work.
The next series deals with OATP2B1. The settings on record: cited from earlier work.
Setting [4] is: pH 7.4, absence of inhibitor, substrate 100 µM (digoxin 50 µM), 38 °C, KBR, read-out: Papp,pig (−INH).
Where [5] appears, read: drug in acceptor compartment at t = 2 h, absence of inhibitor.
Where [6] appears, read: drug in acceptor compartment at t = 2 h.
[7] abbreviates: drug retained in intestinal membrane at t = 2 h, absence of inhibitor.
The mark [8] stands for this setting: drug retained in intestinal membrane at t = 2 h.
[9] abbreviates: Krebs-bicarbonate ringer (KBR) buffer.
The mark [10] stands for this setting: female, Swiss noble, pig, 2 h, pH 7.4.

Each structure is given as a SMILES string. Values after ≈ are worked out from the molar mass of the structure shown. Read-outs that look alike come from different tables or passages of the source.

Broadly, the Papp is a coefficient for how fast a substance crosses the barrier. What is called solubility is the dissolved amount per volume that the medium holds. Low readings indicate a poorly soluble substance, high ones a readily soluble substance. The term log P denotes the decadic logarithm of the partition coefficient of the neutral form, usually between octanol and water. One may read the Km as the concentration of substrate that gives half-maximal velocity. The term Ki denotes the dissociation constant of the complex between target and ligand, obtained from inhibition or displacement. A word on the IC50: it is the concentration that gives 50% inhibition.

Take `CC1=C(C(=O)O)N2C(=O)[C@@H](NC(=O)[C@H](N)c3ccc(O)cc3)[C@H]2SC1` [Cefadroxil]: the apparent permeability (Papp) at 120 min in [1] (setting [4]) amounted to 2.82 ± 0.2 ×10⁻⁶ cm/s. For the same compound, the “Papp,pig fold lower than Papp,rat” value in the series with ex vivo porcine jejunum (corresponding segment of the intestine) is recorded as ~ 1.8 fold. In the series with ex vivo porcine jejunum (setting [5]), the “QPERM (−INH)” value is 0.50 ± 0.18 (4) %. Besides, the “QPERM (+INH)” value in the series on ex vivo porcine jejunum (setting [6]) was 0.31 ± 0.12 (6) %. For the same compound, the “QDEP (−INH)” value in the series on ex vivo porcine jejunum (setting [7]) is recorded as 1.31 ± 0.40%. Also, the “QDEP (+INH)” value in the series with ex vivo porcine jejunum (setting [8]) was determined as 1.47 ± 0.25%. Moreover, the “change of Papp,pig in the presence of the corresponding inhibitor” value with ex vivo porcine jejunum is recorded as “statistically significant decrease”. Moreover, the solubility in “Solubility in KBR buffer” (setting [9]) was 45000 ± 1100 µg/mL (≈ 124 mM). Besides, in series [2], the “log P” value was −0.4. The “Papp,rat (−INH)” value in the series with rat intestine is 4.99 ± 0.50 [70] 10^−6 cm/s.
`C[C@H]1O[C@@H](O[C@H]2[C@@H](O)C[C@H](O[C@H]3[C@@H](O)C[C@H](O[C@H]4CC[C@@]5(C)[C@H](CC[C@@H]6[C@@H]5C[C@@H](O)[C@]5(C)[C@@H](C7=CC(=O)OC7)CC[C@]65O)C4)O[C@@H]3C)O[C@@H]2C)C[C@H](O)[C@@H]1O` [Digoxin] gave a Papp at 120 min in [1] (pH 7.4, Papp,pig (−INH)) of 0.38 ± 0.23 ×10⁻⁶ cm/s. For the same compound, in the series with ex vivo porcine jejunum (setting [10]), the “QDEP (−INH)” value is on record as 0.62 ± 0.17% and the “QPERM (−INH)” value is listed as 0.21 ± 0.12 (4) %. Also, the “change of Papp,pig in the presence of the corresponding inhibitor” value in the series with ex vivo porcine jejunum is given as “significantly increased”. In “Solubility in KBR buffer”, this compound displayed a solubility of 40 ± 10 µg/mL (≈ 0.0512 mM). Further, the Km in the series on P-gp (ref 58) is 73 µM. Moreover, the Km in the series on P-gp (ref 95) was 0.73 µM. For the same compound, the “Papp,rat (−INH)” value in the series with rat intestine was 6.4 ± 1.9 [14] 10^−6 cm/s. The “Papp,human (−INH)” value in the series on human intestine is 1.44 ± 0.72 [30] 10^−6 cm/s.
For `CC(C)n1c(/C=C/C(O)CC(O)CC(=O)O)c(-c2ccc(F)cc2)c2ccccc21` (stereo not drawn) [Fluvastatin], the Ki in the series on BCRP (inhibitor of BCRP) was 5.43 µM.
`COc1ccc2c(c1)c(CC(=O)O)c(C)n2C(=O)c1ccc(Cl)cc1` [Indomethacin]: the IC50 in the series with MRP2 (inhibitor of MRP2) is 0.06 µM.
Turning to `CCCCc1nc(Cl)c(CO)n1Cc1ccc(-c2ccccc2-c2nn[nH]n2)cc1` [Losartan], in the series with PEPT1, the IC50 is 52 µM and the Ki was 24 µM.
As for `CNC(=C[N+](=O)[O-])NCCSCc1ccc(CN(C)C)o1` [Ranitidine], the Papp at 120 min in [1] (setting [4]) stood at 5.07 ± 0.83 ×10⁻⁶ cm/s. In the series on ex vivo porcine jejunum (setting [5]), the “QPERM (−INH)” value is 0.62 ± 0.17 (12) %. Moreover, the “QPERM (+INH)” value with ex vivo porcine jejunum (setting [6]) was 0.21 ± 0.03 (5) %. Also, in the series on ex vivo porcine jejunum (setting [7]), the “QDEP (−INH)” value is on record as 1.11 ± 0.46%. In addition, the “QDEP (+INH)” value with ex vivo porcine jejunum (setting [8]) worked out at 0.43 ± 0.12%. Further, in the series on ex vivo porcine jejunum, the “change of Papp,pig in the presence of the corresponding inhibitor” value is given as “significant decrease” and the “change of QDEP in the presence of the corresponding inhibitor” value is “significant decrease”. The solubility in the series “Solubility in KBR buffer” (setting [9]) was found to be 19600 ± 2780 µg/mL (≈ 62.5 mM). For the same compound, the Km with P-gp (ref 93) is 270 µM. In the series with rat intestine, the “Papp,rat (−INH)” value is 4.00 [72] 10^−6 cm/s. In addition, the “Papp,human (−INH)” value in the series with human intestine is 5.50 [72] 10^−6 cm/s. Besides, the “effect of P-gp inhibition on Papp,pig” value in [3] is given as “significant increase of Papp,pig in the ileum, but not in the jejunum”. In the series on OCT1, the Km was 70 µM.
Consider `CN(CCOc1ccc(CC2SC(=O)NC2=O)cc1)c1ccccn1` (stereo not drawn) [Rosiglitazone], for which the IC50 with OATP2B1 (inhibitor of OATP2B1) is 5.2 µM.
As for `CC(C)c1nc(N(C)S(C)(=O)=O)nc(-c2ccc(F)cc2)c1/C=C/[C@@H](O)C[C@@H](O)CC(=O)O` [Rosuvastatin], the Papp at 120 min in [1] (setting [4]) is 0.91 ± 0.64 ×10⁻⁶ cm/s. For the same compound, the “QPERM (−INH)” value in the series with ex vivo porcine jejunum (setting [5]) is 0.17 ± 0.09 (7) %. The “QPERM (+INH)” value in the series with ex vivo porcine jejunum (setting [6]) is on record as 0.29 ± 0.16 (6) %. The “QDEP (−INH)” value in the series on ex vivo porcine jejunum (setting [7]) is 3.10 ± 1.46%. Moreover, the “QDEP (+INH)” value in the series with ex vivo porcine jejunum (setting [8]) was determined as 1.30 ± 0.14%. In addition, in the series with ex vivo porcine jejunum, the “change of Papp,pig in the presence of the corresponding inhibitor” value was “significantly increased”, the “change of QDEP in the presence of the corresponding inhibitor” value is listed as “significantly decreased” and the “Papp,pig fold lower than Papp,human” value is listed as ~ 9 fold. The same compound registered a solubility in the series “Solubility in KBR buffer” (setting [9]) of 420 ± 160 µg/mL (≈ 0.872 mM). The “log P” value in series [2] is recorded as 0.13. For the same compound, in the series with OATP2B1 (substrate of OATP2B1), the Km was 2.4 µM. For the same compound, the “Papp,human (−INH)” value with human intestine was 6.95 ± 1.50 [30] 10^−6 cm/s.
Consider `O=C(O)c1cc(/N=N/c2ccc(S(=O)(=O)Nc3ccccn3)cc2)ccc1O` [Sulfasalazine], for which, in series [1] (setting [4]), the Papp at 120 min came to 0.006 ± 0.004 ×10⁻⁶ cm/s. Moreover, the “fold increase of Papp,pig in the presence of the inhibitor” value in the series with ex vivo porcine jejunum (digoxin+verapamil, sulfasalazine+fluvastatin) turned out to be 100 fold. For the same compound, in the series on ex vivo porcine jejunum (setting [6]), the “QPERM (+INH)” value is listed as 0.12 ± 0.07 (9) %. Moreover, the “QDEP (−INH)” value in the series with ex vivo porcine jejunum (setting [7]) was determined as 3.23 ± 0.56%. Further, in the series with ex vivo porcine jejunum (setting [8]), the “QDEP (+INH)” value is 2.47 ± 1.24%. Besides, in the series with ex vivo porcine jejunum, the “Papp,pig fold lower than Papp,human” value is on record as ~ 10 fold. Also, the solubility in “Solubility in KBR buffer” (setting [9]) was 3310 ± 140 µg/mL (≈ 8.31 mM). The “log P” value in [2] was 0.4. For the same compound, in the series on BCRP (substrate of BCRP), the Km was 0.7 µM. The “Papp,rat (−INH)” value in the series with rat intestine is 2.76 ± 0.19 [73] 10^−6 cm/s. In addition, the “Papp,human (−INH)” value in the series on human intestine was 0.09 ± 0.06 [30] 10^−6 cm/s.
In the case of `CCCCC(=O)N(Cc1ccc(-c2ccccc2-c2nnn[nH]2)cc1)[C@H](C(=O)O)C(C)C` [Valsartan], the Papp at 120 min in series [1] (setting [4]) is 1.2 ± 0.1 ×10⁻⁶ cm/s. Also, the “QPERM (−INH)” value in the series on ex vivo porcine jejunum (setting [5]) is listed as 0.17 ± 0.02 (4) %. Further, in the series on ex vivo porcine jejunum (setting [6]), the “QPERM (+INH)” value is reported as 0.24 ± 0.10 (4) %. The “QDEP (−INH)” value with ex vivo porcine jejunum (setting [7]) is 0.44 ± 0.02%. The “QDEP (+INH)” value with ex vivo porcine jejunum (setting [8]) was 0.57 ± 0.07%. Besides, in the series with ex vivo porcine jejunum, the “change of Papp,pig in the presence of the corresponding inhibitor” value is listed as “No significant difference” and the “change of QDEP in the presence of the corresponding inhibitor” value was “significantly higher”. In addition, the Km in the series with MRP2 (substrate of MRP2) was 30.4 µM.
With `CN/C(=N/CCSCc1nc[nH]c1C)NC#N` [cimetidine], the “effect of P-gp inhibition on Papp,pig” value in [3] is recorded as “significant increase of Papp,pig in the ileum, but not in the jejunum”.

The record behind these values is PMC7555276, “Using Ex Vivo Porcine Jejunum to Identify Membrane Transporter Substrates: A Screening Tool for Early—Stage Drug Development” (Biomedicines, 2020).
